Assay results: US10058540B2, “2-amino-5,5-difluoro-6-(fluoromethyl)-6-phenyl-3,4,5,6-tetrahydropyridines as BACE1 inhibitors” (H. Lundbeck A/S, priority 2014, dated 2018)
Like-named read-outs stand apart in the source and are kept apart here.

Tests used:
BACE1 = BACE1 (Homo sapiens (Human), UniProt P56817); test: BACE1 binding assay (SPA-based, radioligand); conditions: pH 4.5, Ki=IC50/(1+L/Kd)
Description: The binding assay was performed as SPA-based assay using a biotinylated form of human BACE1 recombinantly expressed and subsequently purified from Freestyle HEK293 cells. The binding assay was run in a 50 mM sodium acetate buffer, pH 4.5 containing 50 mM NaCl and 0.03% Tween-20 in white clear bottom 384 plates (Corning #3653). 10 nM (final concentration) radioligand ([^3H]-N-((1S,2R)-1-benzyl-3-cyclopropylamino-2-hydroxy-propyl)-5-(methanesulfonyl-methyl-amino)-N-((R)-1-phenyl-ethyl)-isophthalamide) (TRQ11569 purchased from GE Healthcare) was mixed with test compound at a given concentration, 6 nM (final concentration) human BACE1 and 25 μg Streptavidin coated PVT core SPA beads (RPNQ0007, GE Healthcare Life Sciences) in a total volume of 40 μl. Several concentrations of each test compound were tested in the assay for IC50 determination. The plates were incubated for one hour at room temperature and counted in a Wallac Trilux counter. Total and non-specific binding were determined using buffer and 1 μM (final concentration) of the high affinity BACE1 reference inhibitor (S)-6-[3-chloro-5-(5-prop-1-ynyl-pyridin-3-yl)-thiophen-2-yl]-2-imino-3,6-dimethyl-tetrahydro-pyrimidin-4-one, respectively. For each test compound, a IC50 value (the concentration mediating 50% inhibition of the specific binding of the radioligand) was determined from concentration-response curve and used to calculate the Ki from the equation Ki=IC50/(1+L/Kd), where L and Kd are the final concentration of the radioligand used in the assay and the dissociation constant of the radioligand, respectively. The Kd of the radioligand was determined from saturation binding experiments.

[1] = Bioanalysis of brain and plasma samples (exposure, UPLC-MS/MS); type: in vivo, rat; conditions: male, Sprague Dawley, po, 3 hours post dose; for Kp at 3 h: brain/plasma, rat, read-out: Brain/Plasma ratio; for concentration at 3 h: read-out: Exp
Description: Young adult Male Sprague Dawley rats of approximately 250 g weight were purchased from Charles River and received 0-30 mg/kg of vehicle (10% HP betaCD+1M MeSO4, pH 2.5) or test compounds (dissolved in vehicle) only by oral gavage (p.o). The compounds are dosed at a volume of […]. Cohorts of 5-10 animals were established for each treatment condition.
At T=180 minutes after initial dosing the animals were stunned and decapitated with a guillotine. Trunk-blood was sampled in EDTA coated tubes after decapitation of the animal. The blood was centrifuged at 2200 G at 4° C. for 15 minutes and the plasma was collected and frozen at −80° C. The blood was aliquoted for Aβ ELISA and DMPK analysis. Immediately following sacrifice, the brain was extracted and split into 2 halves. The right hemibrains were snap frozen on dry ice and stored at −80° C. The left half was dissected; with the front forebrain taken for Aβ ELISA and the remainder used for DMPK analysis. These samples were also snap frozen on dry ice and stored at −80° C. until use for analysis.
TC was determined in plasma and brain homogenate using UltraPerformance LC® (UPLC®) chromatography followed by tandem-MS (MS/MS) detection.
Brain homogenate was prepared by homogenizing the brain 1:4 (v/v) with water:2-propanol:DMSO (50:30:20 v/v/v) followed by centrifugation and collection of the supernatant. Calibration standards and QC samples were prepared using a Hamilton robot. 150 μL of ISTD in acetonitrile (1 ng/mL ISTD) was added to 25 μL of calibration standards, QC samples and test samples (plasma and brain homogenate) using a Biomek robot. After centrifugation (6200 g, 4° C., 20 min) 100 μL supernatant from each sample was transferred to a new plate and mixed with 100 μL water with 0.1% formic acid using a Biomek robot (method file InVivo transfer). After a quick centrifugation (6200 g, 4° C., 5 min) the samples were placed in the auto-sampler.
MS/MS detection was done with an Applied Biosystems Sciex API 4000 instrument in positive-ion electrospray ionisation mode. TC and ISTD were detected at a parent>daughter mass to charge ratio (m/z). Nitrogen was used for the nebulizer and collision gases. The peak area correlated linearly with the plasma and brain concentration of the analytes in the range of 1.00-1000 ng/mL plasma and 5.00-5000 ng/g brain (corrected for dilution). If the plasma/brain sample drug concentration was above 1000 ng/mL or 5000 ng/g, the sample was diluted appropriately in blank plasma/blank brain homogenate before analysis.
• Waters Acquity UPLC HSS C18 SB (pH 2-8) 1.8 μm, 2.1×30 mm. • Mobile phase A: 0.1% aq. formic acid or 0.1% aq. ammonium hydroxide • Mobile phase B: Acetonitrile with 0.1% aq. formic acid or 0.1% aq. ammonium hydroxide. • Weak wash: Methanol • Strong wash: Acetonitrile/Isopropanol/formic acid (50/50/2 v/v/v) • Flow: 0.6 mL/min • Run time: 3 min. • To waste: 0-0.5 min • Temperature: 40° C. Gradient: […]
Compounds 11 and 15 were administered at doses of 10 mg/kg p.o. and brain and plasma samples were collected at 3 hours post dose and the following exposures were measured as described above.

Sequence of BACE1 (P56817 46-501): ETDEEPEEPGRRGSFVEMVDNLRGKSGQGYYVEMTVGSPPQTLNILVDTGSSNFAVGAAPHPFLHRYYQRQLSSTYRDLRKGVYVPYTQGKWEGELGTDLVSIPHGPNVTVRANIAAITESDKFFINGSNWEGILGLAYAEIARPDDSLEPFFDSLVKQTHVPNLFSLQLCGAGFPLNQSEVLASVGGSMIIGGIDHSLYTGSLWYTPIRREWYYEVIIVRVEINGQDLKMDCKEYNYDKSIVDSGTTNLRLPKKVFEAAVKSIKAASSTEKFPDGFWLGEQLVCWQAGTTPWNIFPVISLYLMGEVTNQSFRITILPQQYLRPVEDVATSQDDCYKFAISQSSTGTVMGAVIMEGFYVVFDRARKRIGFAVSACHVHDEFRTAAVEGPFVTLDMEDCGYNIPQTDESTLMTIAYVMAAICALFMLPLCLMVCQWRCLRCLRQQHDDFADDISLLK

COc1cnc(C(=O)Nc2cc(F)c(F)c([C@@]3(CF)N=C(N)CCC3(F)F)c2)cn1 [Compound 11, (S)-N-(3-(6-amino-3,3-difluoro-2-(fluoromethyl)-2,3,4,5-tetrahydropyridin-2-yl)-4,5-difluorophenyl)-5-methoxypyrazine-2-carboxamide]
Ki (BACE1): 14 nM
Kp at 3 h ([1]; 10 mg/kg p.o.): 1.8
Kp at 3 h ([1]; 30 mg/kg p.o.): 1.3
concentration at 3 h ([1]; rat brain, 10 mg/kg p.o.): 1760 ng/g
concentration at 3 h ([1]; rat brain, 30 mg/kg p.o.): 4210 ng/g
concentration at 3 h ([1]; rat plasma, 10 mg/kg p.o.): 1120 ng/g
concentration at 3 h ([1]; rat plasma, 30 mg/kg p.o.): 3290 ng/g
